Test results: US20240270719A1, “CRYSTALLINE FORMS OF 2-(4-(4-(AMINOMETHYL)-1-OXO-1,2-DIHYDROPHTHALAZIN-6-YL)-1-METHYL-1H-PYRAZOL-5-YL)-4-CHLORO-6-CYCLOPROPOXY-3-FLUOROBENZONITRILE” (Mirati Therapeutics, Inc., priority 2023, published 2024)
Counter-ions that a name gives are not always drawn.

Legend:
[1] = Intrinsic dissolution rate and drug in capsule dissolution in FaSSGF and FaSSIF; type: physicochemical
Experimental: The IDR rate was calculated using the slope of the linear curve divided by the surface area of tablet (0.5 cm^2). […] 0.6 mL liquid was removed with a syringe at each time point and filtered. The concentration of filtrates was analyzed by HPLC.

[2] = Excipient compatibility, total impurity content of binary mixtures by HPLC; type: physicochemical; conditions: 40° C./75% RH, 8 weeks; for Compatibility with excipients (total impurity content): binary mixtures, open condition; for Risk of chemical stability: with excipients
Description: Binary mixtures of samples were created by mixing the substance and the excipients (1:10 Compound to Excipients for fillers and 1:1 for all other excipients) using a mortar and pestle and the resultant mixture was accurately weighed and transferred into sample vials. The excipients used were as follows: colloidal silicon dioxide 200, croscarmellose sodium, crosprovidone XL-10, dibasic calcium phosphate (an), hydroxypropyl cellulose, lactose monohydrate, magnesium stearate, mannitol 100SD, MCC PH102, Opadry™ 11, povidone K-30, pregelatinized starch 1500, sodium starch glycolate, and sodium stearyl fumarate. The sample vials were set down at 40° C./75% RH condition for 8 weeks in open condition before analyzing their impurity levels using HPLC.

[3] = Pharmacokinetics after oral capsule administration to dogs pre-treated with pentagastrin or famotidine; type: in vivo, male beagle dogs; conditions: 100 mg/dog, particle size normalized
Experimental: The substances were filled into Empty HPMC Capsules after correcting for potency and administered to dogs pre-treated with either pentagastrin or famotidine along with 40 mL of water. Pentagastrin enhances gastric secretions whereas famotidine neutralizes gastric sections. Therefore, pentagastrin and famotidine pre-treatments were used to simulate the impact of gastric pH on bioavailability and reduce the variability in gastric pH between dogs.
Plasma samples were collected at pre-defined intervals and analyzed for the concentration of Compound 1. The plasma concentration versus time data was analyzed by non-compartmental approaches using Win Nonlin software program to estimate PK parameters such as Cmax, Tmax, AUC0-t and AUC0-inf.

[4] = Compressibility, tabletability, compatibility and physical stability under compaction; type: physicochemical
Experimental: The compressibility (i.e., porosity vs compaction pressure), tabletability (i.e., tensile strength vs compaction pressure), and compatibility (i.e. tensile strength vs porosity) of Free Base Form A of Compound 1 was measured.

[5] = Relative stability of hydrate forms, competitive slurry experiments in IPA/water systems; type: physicochemical
Description: The relative stability between free base Form A, Form B, and Form D was investigated by conducting competitive slurry experiments in isopropyl alcohol (IPA)/water systems at room temperature. […] Further addition of Form A to the experiments verified the result. In systems with αw≥0.37, only Form A was observed after 1 day of stirring at room temperature. Further addition of Form B and Form D to the experiment confirmed the outcome.

**Q.** For `Cn1ncc(-c2ccc3c(=O)[nH]nc(CN)c3c2)c1-c1c(F)c(Cl)cc(OC2CC2)c1C#N` [HCl Form B], which “Dissolution in gastric media” value ([1]; 37° C., 50 rpm) is on record?
**A.** common ion effect slowing dissolution

**Q.** And the “Dissolution rate in intestinal media” value ([1]; intestinal media, 37° C., 50 rpm)?
**A.** slightly faster dissolution rate than Free Base Form A

**Q.** And the “Compatibility with excipients (total impurity content)” value [2]?
**A.** good compatibility with excipients

**Q.** What about the “Risk of chemical stability” value ([2]; open) of the same compound?
**A.** slightly higher

**Q.** Which “Dissolution in gastric media” value ([1]; 37° C., 50 rpm) does the source give for `Cn1ncc(-c2ccc3c(=O)[nH]nc(CN)c3c2)c1-c1c(F)c(Cl)cc(OC2CC2)c1C#N` [Free Base Form A, 2-(4-(4-(aminomethyl)-1-oxo-1,2-dihydrophthalazin-6-yl)-1-methyl-1H-pyrazol-5-yl)-4-chloro-6-cyclopropoxy-3-fluorobenzonitrile] here?
**A.** faster dissolution in gastric media

**Q.** What about the “Supersaturation in intestinal fluid” value ([1]; pH shifted from gastric to intestinal after 30 minutes) of the same compound?
**A.** able to maintain super saturation in intestinal fluid

**Q.** And the “Compatibility with excipients (total impurity content)” value [2]?
**A.** good compatibility with excipients

**Q.** What about the “Sensitivity to individual excipients (total impurity content)” value ([2]; colloidal silicon dioxide and lactose monohydrate, open) of the same compound?
**A.** more sensitive to colloidal silicon dioxide and lactose monohydrate than HCl Form B

**Q.** What about the “Risk of chemical stability” value ([2]; open) of the same compound?
**A.** slightly higher

**Q.** What about the “Exposure (plasma AUC) compared with HCl salt” value [3] of the same compound?
**A.** equivalent exposure to HCl salt

**Q.** And the “Compatibility (tensile strength vs porosity)” value [4]?
**A.** good

**Q.** And the “Compressibility (porosity vs compaction pressure)” value [4]?
**A.** good

**Q.** And the “Tabletability (tensile strength vs compaction pressure)” value [4]?
**A.** good

**Q.** And the “Loss of crystallinity (XRPD before and after compression)” value ([4]; high compaction pressures)?
**A.** No apparent loss of crystallinity

**Q.** For `Cn1ncc(-c2ccc3c(=O)[nH]nc(CN)c3c2)c1-c1c(F)c(Cl)cc(OC2CC2)c1C#N` [Form B, 2-(4-(4-(aminomethyl)-1-oxo-1,2-dihydrophthalazin-6-yl)-1-methyl-1H-pyrazol-5-yl)-4-chloro-6-cyclopropoxy-3-fluorobenzonitrile], which “Conversion rate in competitive slurry” value ([5]; αw=0.13, compared with higher water activities) is on record?
**A.** slightly slower than those at higher water activities

**Q.** And the “Form conversion in competitive slurry” value ([5]; αw=0.13, room temperature)?
**A.** converted to Form A eventually
